Experimental data: article PMC5507466, “The ubiquitin-conjugating enzyme CDC34 is essential for cytokinesis in contrast to putative subunits of a SCF complex in Trypanosoma brucei” (PLoS Neglected Tropical Diseases, 2017)

Biological target: T1, TbCDC34 (Trypanosoma brucei, UniProt Q382B7)
T1 construct: gene Tb11.01.5790; N-terminal 6His-tagged, expressed in E. coli BL21(DE3)+pLysE, Ni-NTA purified; catalytic Cys84, Ser86
T1 sequence (Q382B7 1-247): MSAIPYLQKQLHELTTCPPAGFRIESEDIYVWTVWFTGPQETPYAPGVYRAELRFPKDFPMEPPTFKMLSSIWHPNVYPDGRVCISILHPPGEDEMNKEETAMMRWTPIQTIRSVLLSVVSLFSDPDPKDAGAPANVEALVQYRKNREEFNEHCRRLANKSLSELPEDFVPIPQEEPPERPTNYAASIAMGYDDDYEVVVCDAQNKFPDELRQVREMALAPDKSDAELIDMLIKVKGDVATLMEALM
Assay: in vitro gel-based ubiquitination assay (anti-ubiquitin and anti-His western blot)
Type: biochemical
Conditions: 300 μM CC0651 vs DMSO; 10 μM E2, 100 nM human E1, 5 μM human ubiquitin; ATP; 37 °C, 0-4 h

COCC(=O)N[C@@H](Cc1ccc(-c2cc(Cl)cc(Cl)c2)cc1)[C@H](O)[C@@H](O)C(=O)O [CC0651]
in vitro gel-based ubiquitination assay (anti-ubiquitin and anti-His western blo): addition of CC0651 to the reaction had modest, but detectable effect on TbCDC34 activity
